Here are results for 1 compound from patent US20110104055A1, “SUBSTITUTED N-ARYL BENZAMIDES AND RELATED COMPOUNDS FOR TREATMENT OF AMYLOID DISEASES AND SYNUCLEINOPATHIES” (priority 2002, published 2011).

Type in all cases: biochemical
Assay [1] has as its target T1, Aβ 1-42 fibrils (Homo sapiens, UniProt P05067).
T1 construct: purchased Bachem Inc
The assay can be described thus: Congo red binding assay, Aβ 1-42 fibrils (Example 6). Conditions: 3-day incubation. Here is the method:
In the Congo red binding assay the ability of a given test compound to alter amyloid (Aβ 1-42 fibrils, IAPP fibrils or NAC fibrils) binding to Congo red was quantified. In this assay, Aβ 1-42 fibrils, IAPP fibril or NAC fibrils and test compounds were incubated for 3 days and then vacuum filtered through a 0.2 μm filter. The amount of Aβ 1-42 fibrils, IAPP fibrils or NAC fibrils retained in the filter was then quantitated following staining of the filter with Congo red. After appropriate washing of the filter, any lowering of the Congo red color on the filter in the presence of the test compound (compared to the Congo red staining of the amyloid protein in the absence of the test compound) was indicative of the test compound's ability to diminish/alter the amount of aggregated and congophilic Aβ 1-42 fibrils, IAPP fibrils or NAC fibrils.
In the Congo red binding assay the ability of a test compound to alter amyloid (in this case, Aβ) binding to Congo red is quantified. In this assay, Aβ 1-42 and test compounds were incubated for 3 days and then vacuum filtered through a 0.2 μm filter. The amount of Aβ 1-42 retained in the filter was then quantified following staining of the filter with Congo red. After appropriate washing of the filter, any lowering of the Congo red color on the filter in the presence of the test compound (compared to the Congo red staining of the amyloid protein in the absence of the test compound) was indicative of the test compound's ability to diminish/alter the amount of aggregated and congophilic Aβ.
In one study, the ability of Aβ fibrils to bind Congo red in the absence or presence of increasing amounts of the compounds or EDTA (at Aβ:test compound weight ratios of 1:0.001, 1:0.01, 1:0.1 and 1:1) was determined.

A further assay addresses T2, IAPP fibrils (Homo sapiens, UniProt P10997).
T2 construct: purchased Bachem Inc
T2 sequence (P10997 34-70 limits assumed): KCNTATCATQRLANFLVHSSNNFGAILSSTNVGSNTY
Put plainly: Thioflavin T fluorometry, disruption of IAPP fibrils. As to conditions: 3 days; for % inhibition of IAPP (Thioflavin T fluorometry): 25 μM IAPP, 37° C. Here is the method: The biological activity of the compounds provided herein as disruptors/inhibitors of Alzheimer's disease β-amyloid protein (Aβ) fibrils, type 2 diabetes IAPP fibrils and Parkinson's disease NAC fibrils was assessed by determining the efficacy of the compounds to cause a disassembly/disruption of pre-formed amyloid fibrils of Alzheimer's disease (i.e. consisting of Aβ 1-42 fibrils), IAPP fibrils and Parkinson's disease NAC fibrils. […] In this assay Thioflavin T binds specifically to fibrillar amyloid, and this binding produces a fluorescence enhancement at 485 nm that is directly proportional to the amount of fibrils present. The higher the fluorescence, the greater the amount of fibrils present (Naki et al, Lab. Invest. 65:104-110, 1991; Levine III, Protein Sci. 2:404-410, 1993; Amyloid: Int. J. Exp. Clin. Invest. 2:1-6, 1995). The disruption of Aβ 1-42, even in its monomeric form, was confirmed by a study involving the use of SDS-PAGE and Western blotting methods.
(§1) In this assay Thioflavin T binds specifically to fibrillar amyloid, and this binding produces a fluorescence enhancement at 485 nm that is directly proportional to the amount of amyloid fibrils formed. The higher the fluorescence, the greater the amount of amyloid fibrils formed (Naki et al., Lab. Invest. 65:104-110, 1991; Levine III, Protein Sci. 2:404-410, 1993; Amyloid: Int. J. Exp. Clin. Invest. 2:1-6, 1995).
In this study, 25 μM of IAPP (Bachem Inc) was incubated at 37° C. for 3 days, either alone, or in the presence of one of the compounds or EDTA (at IAPP:test compound weight ratios of 1:1, 1:0.1, 1:0.01 or 1:0.001). Following 3 days of co-incubation, 50 μl of each incubation mixture was transferred into a 96-well microtiter plate containing 150 μl of distilled water and 50 μl of a Thioflavin T solution (i.e. […] Thioflavin T in 250 mM phosphate buffer, pH 6.8). The fluorescence was read at 485 nm (444 nm excitation wavelength) using an ELISA plate fluorometer after subtraction with buffer alone or compound alone, as blank).

Assay [2] has as its target T1, Aβ 1-42 fibrils. Put plainly: Thioflavin T fluorometry, disruption of pre-formed Aβ 1-42 fibrils (Example 11). As to conditions: 3 days; for % Inhibition Aβ (result ± S.D.), Thioflavin T fluorometry: 30 μg pre-fibrillized Aβ 1-42, 37° C. The source says:
In one study, Thioflavin T fluorometry was used to determine the effects of the compounds, and of EDTA (as a negative control). In this assay Thioflavin T binds specifically to fibrillar amyloid, and this binding produces a fluorescence enhancement at 485 nm that is directly proportional to the amount of amyloid fibrils formed. The higher the fluorescence, the greater the amount of amyloid fibrils formed (Naki et al., Lab. Invest. 65:104-110, 1991; Levine III, Protein Sci. 2:404-410, 1993; Amyloid: Int. J. Exp. Clin. Invest. 2:1-6, 1995).
Following 3-days of co-incubation, 50 μl of each incubation mixture was transferred into a 96-well microtiter plate containing 150 μl of distilled water and 50 μl of a Thioflavin T solution (i.e. 500 mM Thioflavin T in 250 mM phosphate buffer, pH 6.8). The fluorescence was read at 485 nm (444 nm excitation wavelength) using an ELISA plate fluorometer after subtraction with buffer alone or compound alone, as blank.

The target in assay [3] is T1, Aβ 1-42 fibrils. The assay can be described thus: Thioflavin T fluorometry, disruption of pre-formed Aβ 1-42 fibrils (Example 7). Conditions: for % inhibition of Aβ (Thioflavin T fluorometry): 25 μM pre-fibrillized Aβ 1-42, 37° C., 3 days (Table 3). Here is the method: as §1
Following 3 days of co-incubation, 50 μl of each incubation mixture was transferred into a 96-well microtiter plate containing 150 μl of distilled water and 50 μl of a Thioflavin T solution (i.e. 500 mM Thioflavin T in 250 mM phosphate buffer, pH 6.8). The fluorescence was read at 485 nm (444 nm excitation wavelength) using an ELISA plate fluorometer after subtraction with buffer alone or compound alone, as blank).

Where [4] appears, read: Aβ:test compound wt/wt ratio 1:0.001.
Setting [5] is: Aβ:test compound wt/wt ratio 1:0.01.
Where [6] appears, read: Aβ:test compound wt/wt ratio 1:0.1.
[7] abbreviates: Aβ:test compound wt/wt ratio 1:1.
Setting [8] is: Thioflavin T fluorometry, all concentrations tested.

Each structure is given as a SMILES string.

T1 sequence (P05067 672-713): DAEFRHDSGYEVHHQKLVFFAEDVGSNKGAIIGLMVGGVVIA

For `O=C(O)CN(CCN(CC(=O)O)CC(=O)O)CC(=O)O` [EDTA], the “inhibition of Aβ 1-42 fibril binding to Congo red, in words” value on Aβ 1-42 fibrils [1] is on record as “no significant inhibition”. Besides, the “% inhibition of Aβ (Congo red binding)” value at Aβ 1-42 fibrils [1] (setting [4]) is on record as 0.0 ± 0.62%; on Aβ 1-42 fibrils [1] (setting [5]) it was 0.0 +/− 0.49%; at Aβ 1-42 fibrils [1] (setting [6]), 0.0 ± 0.76%; at Aβ 1-42 fibrils [1] (setting [7]), 3.9 +/− 1.37%. Also, the “% inhibition of IAPP (Thioflavin T fluorometry)” value was 0.0 +/− 0.56% on IAPP fibrils (IAPP:test compound wt/wt ratio 1:0.001), 4. +/− 3.152% at IAPP fibrils (IAPP:test compound wt/wt ratio 1:0.01), 1.6 +/− 5.86% at IAPP fibrils (IAPP:test compound wt/wt ratio 1:0.1) and 0.0 ± 1.31% on IAPP fibrils (IAPP:test compound wt/wt ratio 1:1). The “disruption/disassembly of preformed IAPP fibrils, in words” value at IAPP fibrils (setting [8]) is “no significant inhibition/disruption”. For the same compound, the “% Inhibition Aβ (result ± S.D.), Thioflavin T fluorometry” value at Aβ 1-42 fibrils [2] (setting [4]) is 0.0 ± 1.70%; on Aβ 1-42 fibrils [2] (setting [5]), 2.4 ± 2.86%; on Aβ 1-42 fibrils [2] (setting [6]), 0.0 ± 6.02%; on Aβ 1-42 fibrils [2] (setting [7]) it was 0.0 ± 3.46%. The “disruption/disassembly of preformed Aβ 1-42 fibrils, in words” value on Aβ 1-42 fibrils [2] (setting [8]) is “no significant inhibition”; on Aβ 1-42 fibrils [3] (Thioflavin T fluorometry, all concentrations tested, 3 days), “no significant inhibition/disruption”. The “% inhibition of Aβ (Thioflavin T fluorometry)” value is 10.3 +/− 10.81% on Aβ 1-42 fibrils [3] (setting [4]), 0.0 +/− 2.26% at Aβ 1-42 fibrils [3] (setting [5]), 0.0 +/− 1.18% on Aβ 1-42 fibrils [3] (setting [6]) and 5.0 +/− 11.39% on Aβ 1-42 fibrils [3] (setting [7]).
